For one experiment, the system named is A549 lung cancer cells. Description: Cell cycle analysis (propidium iodide, flow cytometry). The experiment is classed as cell-based, human. To be noted: A549, serum-starved, 24 h (vehicle 1%). As to the method:
Since DJ4 inhibits phosphorylation of MLC, we hypothesized that DJ4-treated cells are unable to complete cell division and arrest in G2/M phase of the cell cycle. To test this hypothesis, A549 lung cancer cells were synchronized in the G1 phase by serum-starvation for 24 h. After serum replenishment, cells were further treated with 2.5 µM, 5 µM, and 10 µM DJ-4 for 16-, 24-, and 48 h (Figure 3A). Before treatment with DJ4 (time zero), about 80% of cells were in the G1 phase, 20% in the G2/M phase, and essentially none in the S phase. In vehicle treated control cells, there were minimal cells in the G2/M phase at both 24 h (1%) and 48 h (8%). […] At 48 h, cells remained arrested in the G2/M phase, but also, there was an increase in the sub-G1 cell population indicating apoptotic cells.
Figure 3 DJ4 arrests A549 lung cancer cells in G2/M phase and induces apoptotic cell death in NSCLC and breast cancer cells. (A). A549 cells were serum-starved for 24 h and treated for 16 h, 24 h, and 48 h with indicated concentrations. Propidium iodide stained cells were analyzed for DNA content by flow cytometry. The cell cycle graphs indicate distribution of cells in the G1, S, and G2/M phases of cell cycle. Sub-G1 cell population indicates apoptotic cells. (B). Annexin V staining of A549 cells. The cells were treated with indicated concentrations and durations. Percent annexin V + cells were analyzed using Muse^TM cell analyzer. Error bars indicate SEM. n = 2. (C). Analysis of annexin V + ve and mitochondrial membrane depolarized cells. MDA-MB-231 cells were treated for 48 h at the indicated concentrations. Staurosporin (2.5 µM) was used as a positive control. Error bars indicate SEM. n = 2. * p < 0.05. […] These are best readings and their digits are not certain: DMSO 7 and 14; DJ4 1.25 μM 10 and 22; DJ4 2.5 μM 23 and 40; Staurosporin 12 and 40 / Panel B, 24 h: the ** is read as belonging to the 5 μM bar (10), not the 2.5 μM bar (8); this is not fully certain […]
(In flow cytometry, cells or beads pass a laser one at a time.)

In experiment [1] the test system is EGFR mutants (G718C, G719S, L858R, etc.). Description: KINOMEscan competition binding assay. Further details: species or system human. To be noted: 10 µM. From the text:
(§1) To examine specificity of DJ4 to different human kinases, we performed a KINOMEscan profiling assay (DiscoverX, Fremont, CA, USA). The KINOMEscan assay consists of a panel of more than 480 kinases of different classes (TK/TKL/STE/CK1/AGC/CAMK/CMGC/others), including clinically relevant mutants, atypical kinases, lipid, and pathogen kinases. […] However, we also recognized the limitations of DJ4 that preclude its clinical development and the need for further optimization of the DJ4 chemotype.
(§2) Figure 5 The kinase selectivity profile for DJ4 assessed using KINOMEscan high-throughput assay. […] The red spots (ROCK/MRCK/CDK/FLT3/KIT) indicate kinases with high specificity to DJ4. (C,D) The % inhibition profile of DJ4 with wild-type (WT) and its clinically relevant kinase mutants of RET (rearranged during transfection) tyrosine kinase (C) and EGFR (epidermal growth factor receptor) protein kinase (D).
(§3) The KINOMEscan®, in vitro competition binding assay, was performed by Lead Hunter Discovery Services (DiscoverX Corporation, Fremont, CA, USA) to determine the kinase specificity of DJ4, a novel kinase inhibitor [19, 44]. […] The %Ctrl is calculated as follows: [(DJ4 signal-positive control signal)/(negative control DMSO signal-positive control signal)] x 00. […]

Experiment [2] relates to RET tyrosine kinase mutants (V804L/V804/M918T). Description: KINOMEscan competition binding assay. Also on record: species or system human. The settings on record: 10 µM.
From the text: as §1, §2, §3

Each structure is given as a SMILES string.

`O=C1N/C(=N\CCc2ccccc2)S/C1=C/c1c[nH]c2ncccc12` [DJ4]: the G2/M cell population in the experiment on A549 lung cancer cells (2.5 µM) was found to be 31%; in the experiment with A549 lung cancer cells (5 µM), 42%; with A549 lung cancer cells (10 µM), 45%. Moreover, in experiment [1], the “inhibition of EGFR mutants relative to wild-type form” value was “differential inhibition”. Further, the “binding of RET mutants relative to wild-type” value in experiment [2] is on record as “stronger binding”.

The values above are taken from PMC10458458, “Characterization of Anticancer Effects of the Analogs of DJ4, a Novel Selective Inhibitor of ROCK and MRCK Kinases” (Pharmaceuticals, 2023).
